Data: the kinase profiling compilation of Christmann-Franck et al. (2016)

How the values were obtained:
Assay in all cases: KINOMEscan competition binding
Conditions in all cases: compound 10.0 µM
BMPR2 (human) = BMPR2 (human) (UniProt Q13873)
CAMK1D (human) = CAMK1D (human) (UniProt Q8IU85)
CAMK1G (human) = CAMK1G (human) (UniProt Q96NX5)
CAMK4 (human) = CAMK4 (human) (UniProt Q16566)
CDK3 (human) = CDK3 (human) (UniProt Q00526)
CHEK1 (human) = CHEK1 (human) (UniProt O14757)
CHUK (human) = CHUK (human) (UniProt O15111)
CLK1 (human) = CLK1 (human) (UniProt P49759)
CLK2 (human) = CLK2 (human) (UniProt P49760)
DAPK2 (human) = DAPK2 (human) (UniProt Q9UIK4)
DCLK3 (human) = DCLK3 (human) (UniProt Q9C098)
EPHA2 (human) = EPHA2 (human) (UniProt P29317)
FGFR1 (human) = FGFR1 (human) (UniProt P11362)
FGR (human) = FGR (human) (UniProt P09769)
FLT1 (human) = FLT1 (human) (UniProt P17948)
HIPK1 (human) = HIPK1 (human) (UniProt Q86Z02)
IGF1R (human) = IGF1R (human) (UniProt P08069)
INSR (human) = INSR (human) (UniProt P06213)
ITK (human) = ITK (human) (UniProt Q08881)
LATS2 (human) = LATS2 (human) (UniProt Q9NRM7)
MAP2K1 (human) = MAP2K1 (human) (UniProt Q02750)
MAP2K3 (human) = MAP2K3 (human) (UniProt P46734)
MAP3K10 (human) = MAP3K10 (human) (UniProt Q02779)
MAP3K5 (human) = MAP3K5 (human) (UniProt Q99683)
MERTK (human) = MERTK (human) (UniProt Q12866)
MKNK2 (human) = MKNK2 (human) (UniProt Q9HBH9)
MUSK (human) = MUSK (human) (UniProt O15146)
MYO3B (human) = MYO3B (human) (UniProt Q8WXR4)
PIK3C2B (human) = PIK3C2B (human) (UniProt O00750)
PKN2 (human) = PKN2 (human) (UniProt Q16513)
PRKAA1 (human) = PRKAA1 (human) (UniProt Q13131)
PRKD1 (human) = PRKD1 (human) (UniProt Q15139)
PRKD2 (human) = PRKD2 (human) (UniProt Q9BZL6)
ROCK2 (human) = ROCK2 (human) (UniProt O75116)
RPS6KA1 KD1 (human) = RPS6KA1 KD1 (human) (UniProt Q15418)
RPS6KA6 KD1 (human) = RPS6KA6 KD1 (human) (UniProt Q9UK32)
SLK (human) = SLK (human) (UniProt Q9H2G2)
STK32B (human) = STK32B (human) (UniProt Q9NY57)
TXK (human) = TXK (human) (UniProt P42681)
ULK3 (human) = ULK3 (human) (UniProt Q6PHR2)

Chain of TXK (human) (P42681 whole entry, looked up): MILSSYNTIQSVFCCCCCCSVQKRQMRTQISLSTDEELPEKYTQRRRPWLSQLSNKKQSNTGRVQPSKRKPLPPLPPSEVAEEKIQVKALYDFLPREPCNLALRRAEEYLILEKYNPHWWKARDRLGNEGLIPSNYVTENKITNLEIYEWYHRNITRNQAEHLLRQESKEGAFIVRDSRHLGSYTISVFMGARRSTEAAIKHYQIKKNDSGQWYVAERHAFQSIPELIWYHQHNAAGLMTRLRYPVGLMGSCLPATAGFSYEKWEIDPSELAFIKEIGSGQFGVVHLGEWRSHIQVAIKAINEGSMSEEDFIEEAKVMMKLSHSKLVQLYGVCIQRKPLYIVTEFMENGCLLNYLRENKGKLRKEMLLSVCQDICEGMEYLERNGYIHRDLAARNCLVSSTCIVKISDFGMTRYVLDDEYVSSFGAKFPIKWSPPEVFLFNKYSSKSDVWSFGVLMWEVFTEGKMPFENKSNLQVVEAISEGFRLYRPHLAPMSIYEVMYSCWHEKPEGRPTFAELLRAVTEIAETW
Chain of CHEK1 (human) (O14757 whole entry, looked up): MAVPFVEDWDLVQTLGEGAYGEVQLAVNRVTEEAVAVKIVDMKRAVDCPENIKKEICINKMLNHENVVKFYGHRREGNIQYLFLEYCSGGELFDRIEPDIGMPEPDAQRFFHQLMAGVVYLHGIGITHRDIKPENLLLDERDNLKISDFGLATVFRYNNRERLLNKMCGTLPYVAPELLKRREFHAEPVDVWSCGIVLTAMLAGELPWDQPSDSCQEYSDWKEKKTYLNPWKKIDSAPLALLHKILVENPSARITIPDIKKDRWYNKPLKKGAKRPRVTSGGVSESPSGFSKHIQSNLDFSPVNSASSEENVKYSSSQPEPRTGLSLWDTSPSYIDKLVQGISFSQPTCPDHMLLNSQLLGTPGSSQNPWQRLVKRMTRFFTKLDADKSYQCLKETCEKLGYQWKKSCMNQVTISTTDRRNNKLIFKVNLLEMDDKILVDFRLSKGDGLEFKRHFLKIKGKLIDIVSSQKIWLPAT
Chain of CAMK4 (human) (Q16566 whole entry, looked up): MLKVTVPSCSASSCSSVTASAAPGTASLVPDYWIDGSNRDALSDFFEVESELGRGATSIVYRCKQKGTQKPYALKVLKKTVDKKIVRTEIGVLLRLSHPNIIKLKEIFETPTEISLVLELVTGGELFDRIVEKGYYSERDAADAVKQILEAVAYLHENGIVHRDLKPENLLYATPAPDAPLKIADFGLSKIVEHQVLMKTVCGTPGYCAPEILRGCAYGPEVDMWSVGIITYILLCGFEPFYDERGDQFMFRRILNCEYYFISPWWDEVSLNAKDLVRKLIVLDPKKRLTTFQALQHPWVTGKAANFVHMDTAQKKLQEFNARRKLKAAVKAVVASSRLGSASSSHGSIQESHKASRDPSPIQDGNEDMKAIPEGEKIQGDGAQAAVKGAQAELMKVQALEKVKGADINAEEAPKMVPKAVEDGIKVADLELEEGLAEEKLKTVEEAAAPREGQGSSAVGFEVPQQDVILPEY
Chain of MUSK (human) (O15146 whole entry, looked up): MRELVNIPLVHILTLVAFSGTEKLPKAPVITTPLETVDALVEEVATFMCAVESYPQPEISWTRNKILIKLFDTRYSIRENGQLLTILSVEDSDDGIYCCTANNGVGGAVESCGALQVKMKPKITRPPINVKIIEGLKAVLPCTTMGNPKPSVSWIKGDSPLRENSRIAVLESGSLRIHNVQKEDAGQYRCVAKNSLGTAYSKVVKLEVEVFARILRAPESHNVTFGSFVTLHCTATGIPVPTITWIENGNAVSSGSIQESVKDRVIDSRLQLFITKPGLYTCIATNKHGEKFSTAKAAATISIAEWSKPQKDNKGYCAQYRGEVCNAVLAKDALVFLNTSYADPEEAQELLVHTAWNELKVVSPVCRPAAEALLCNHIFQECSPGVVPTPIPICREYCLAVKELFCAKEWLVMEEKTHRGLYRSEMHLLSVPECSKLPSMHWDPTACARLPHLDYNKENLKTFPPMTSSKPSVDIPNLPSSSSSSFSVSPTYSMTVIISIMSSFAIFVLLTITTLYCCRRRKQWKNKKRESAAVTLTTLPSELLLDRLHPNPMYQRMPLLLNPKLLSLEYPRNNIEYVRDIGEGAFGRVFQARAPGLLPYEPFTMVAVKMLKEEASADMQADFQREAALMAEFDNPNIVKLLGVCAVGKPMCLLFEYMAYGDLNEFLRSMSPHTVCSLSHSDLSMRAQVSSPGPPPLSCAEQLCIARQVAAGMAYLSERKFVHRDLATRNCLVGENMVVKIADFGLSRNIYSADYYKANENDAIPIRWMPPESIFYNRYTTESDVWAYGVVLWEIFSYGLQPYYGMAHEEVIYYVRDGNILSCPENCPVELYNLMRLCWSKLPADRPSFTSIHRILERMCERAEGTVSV
Chain of HIPK1 (human) (Q86Z02 whole entry, looked up): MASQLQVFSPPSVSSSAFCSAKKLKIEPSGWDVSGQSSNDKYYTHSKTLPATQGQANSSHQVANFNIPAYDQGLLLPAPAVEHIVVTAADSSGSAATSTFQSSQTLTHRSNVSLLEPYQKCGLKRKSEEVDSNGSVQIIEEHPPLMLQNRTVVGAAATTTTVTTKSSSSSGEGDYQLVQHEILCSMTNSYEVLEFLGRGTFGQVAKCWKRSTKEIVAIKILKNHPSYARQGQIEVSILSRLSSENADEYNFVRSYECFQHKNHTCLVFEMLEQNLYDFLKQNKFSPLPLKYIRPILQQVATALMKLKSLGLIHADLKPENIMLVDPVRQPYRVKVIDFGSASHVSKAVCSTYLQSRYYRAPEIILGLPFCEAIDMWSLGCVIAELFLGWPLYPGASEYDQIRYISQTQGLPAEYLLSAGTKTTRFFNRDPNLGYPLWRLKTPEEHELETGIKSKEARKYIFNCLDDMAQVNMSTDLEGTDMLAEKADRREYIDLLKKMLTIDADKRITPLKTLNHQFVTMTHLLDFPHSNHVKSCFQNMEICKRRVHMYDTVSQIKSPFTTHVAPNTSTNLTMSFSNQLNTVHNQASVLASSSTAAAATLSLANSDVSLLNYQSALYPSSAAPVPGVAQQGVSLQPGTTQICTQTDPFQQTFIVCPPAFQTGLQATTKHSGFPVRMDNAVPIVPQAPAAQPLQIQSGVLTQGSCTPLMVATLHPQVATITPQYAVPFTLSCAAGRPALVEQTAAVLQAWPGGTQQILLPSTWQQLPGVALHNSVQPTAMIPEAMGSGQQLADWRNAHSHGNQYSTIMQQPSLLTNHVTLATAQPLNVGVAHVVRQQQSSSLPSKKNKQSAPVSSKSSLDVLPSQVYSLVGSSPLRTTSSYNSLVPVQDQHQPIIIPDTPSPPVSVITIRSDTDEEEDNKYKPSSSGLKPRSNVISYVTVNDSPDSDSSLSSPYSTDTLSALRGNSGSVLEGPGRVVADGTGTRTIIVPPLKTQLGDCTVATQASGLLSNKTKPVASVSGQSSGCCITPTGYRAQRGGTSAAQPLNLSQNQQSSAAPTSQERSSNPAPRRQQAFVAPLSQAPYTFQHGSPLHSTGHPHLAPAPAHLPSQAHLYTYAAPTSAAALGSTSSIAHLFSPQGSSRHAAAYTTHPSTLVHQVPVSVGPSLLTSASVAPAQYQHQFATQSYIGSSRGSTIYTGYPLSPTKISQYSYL
Chain of INSR (human) (P06213 whole entry, looked up): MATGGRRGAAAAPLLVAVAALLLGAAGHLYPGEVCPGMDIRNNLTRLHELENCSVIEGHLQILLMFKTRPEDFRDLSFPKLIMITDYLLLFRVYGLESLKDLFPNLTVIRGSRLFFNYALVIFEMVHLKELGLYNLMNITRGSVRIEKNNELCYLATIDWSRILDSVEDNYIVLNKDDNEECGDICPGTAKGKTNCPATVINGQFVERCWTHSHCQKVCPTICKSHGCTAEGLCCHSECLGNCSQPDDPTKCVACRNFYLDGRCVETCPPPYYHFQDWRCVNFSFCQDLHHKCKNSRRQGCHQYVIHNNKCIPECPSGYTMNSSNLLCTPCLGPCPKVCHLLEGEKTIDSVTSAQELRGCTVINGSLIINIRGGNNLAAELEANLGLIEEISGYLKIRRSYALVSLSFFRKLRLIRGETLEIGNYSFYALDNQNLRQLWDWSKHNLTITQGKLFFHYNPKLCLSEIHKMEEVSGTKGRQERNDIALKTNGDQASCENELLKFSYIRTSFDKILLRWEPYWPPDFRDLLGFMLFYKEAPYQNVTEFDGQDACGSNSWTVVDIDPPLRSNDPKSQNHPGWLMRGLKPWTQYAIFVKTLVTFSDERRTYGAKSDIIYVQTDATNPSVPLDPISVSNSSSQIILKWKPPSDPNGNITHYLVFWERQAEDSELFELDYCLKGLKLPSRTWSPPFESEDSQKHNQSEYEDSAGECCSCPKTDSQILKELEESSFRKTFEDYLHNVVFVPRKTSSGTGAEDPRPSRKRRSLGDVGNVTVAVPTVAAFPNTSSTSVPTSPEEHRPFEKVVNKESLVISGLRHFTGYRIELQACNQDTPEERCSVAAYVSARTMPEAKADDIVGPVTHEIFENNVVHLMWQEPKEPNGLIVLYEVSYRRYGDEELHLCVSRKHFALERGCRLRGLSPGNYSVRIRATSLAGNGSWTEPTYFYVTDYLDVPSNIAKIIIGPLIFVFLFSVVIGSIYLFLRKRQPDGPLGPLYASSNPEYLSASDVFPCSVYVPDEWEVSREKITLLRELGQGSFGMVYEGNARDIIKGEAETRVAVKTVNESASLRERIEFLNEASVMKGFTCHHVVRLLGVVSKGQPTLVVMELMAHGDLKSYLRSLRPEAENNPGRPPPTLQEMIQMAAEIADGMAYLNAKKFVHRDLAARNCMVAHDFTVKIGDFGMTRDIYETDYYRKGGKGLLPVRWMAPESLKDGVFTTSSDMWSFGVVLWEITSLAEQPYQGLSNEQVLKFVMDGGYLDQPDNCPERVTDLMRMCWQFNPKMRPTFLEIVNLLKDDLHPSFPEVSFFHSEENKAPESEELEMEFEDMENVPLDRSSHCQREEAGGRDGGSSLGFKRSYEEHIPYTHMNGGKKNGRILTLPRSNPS

Row | SMILES | kinase still bound, per cent of control (BMPR2 (human)) | kinase still bound, per cent of control (CAMK1D (human)) | kinase still bound, per cent of control (CAMK1G (human)) | kinase still bound, per cent of control (CAMK4 (human)) | kinase still bound, per cent of control (CDK3 (human)) | kinase still bound, per cent of control (CHEK1 (human)) | kinase still bound, per cent of control (CHUK (human)) | kinase still bound, per cent of control (CLK1 (human)) | kinase still bound, per cent of control (CLK2 (human)) | kinase still bound, per cent of control (DAPK2 (human)) | kinase still bound, per cent of control (DCLK3 (human)) | kinase still bound, per cent of control (EPHA2 (human)) | kinase still bound, per cent of control (FGFR1 (human)) | kinase still bound, per cent of control (FGR (human)) | kinase still bound, per cent of control (FLT1 (human)) | kinase still bound, per cent of control (HIPK1 (human)) | kinase still bound, per cent of control (IGF1R (human)) | kinase still bound, per cent of control (INSR (human)) | kinase still bound, per cent of control (ITK (human)) | kinase still bound, per cent of control (LATS2 (human)) | also measured
1 | C=CC(=O)Nc1cccc(Nc2nc(N[C@H]3CC[C@H](N(C)C)CC3)nc3c2ncn3C(C)C)c1 | 79% | 67% | 93% | 100% | 95% | 87% | 82% | 1% | 0.5% | 37% | 86% | 60% | 76% | 14% | 100% | 25% | 87% | 69% | 65% | 70% | kinase still bound, per cent of control (MAP2K1 (human)): 83%; kinase still bound, per cent of control (MAP2K3 (human)): 77%; kinase still bound, per cent of control (MAP3K10 (human)): 84%; kinase still bound, per cent of control (MAP3K5 (human)): 100%; kinase still bound, per cent of control (MERTK (human)): 16%; kinase still bound, per cent of control (MKNK2 (human)): 39%; kinase still bound, per cent of control (MUSK (human)): 84%; kinase still bound, per cent of control (MYO3B (human)): 100%; kinase still bound, per cent of control (PIK3C2B (human)): 100%; kinase still bound, per cent of control (PKN2 (human)): 61%; kinase still bound, per cent of control (PRKAA1 (human)): 78%; kinase still bound, per cent of control (PRKD1 (human)): 100%; kinase still bound, per cent of control (PRKD2 (human)): 100%; kinase still bound, per cent of control (ROCK2 (human)): 10%; kinase still bound, per cent of control (RPS6KA1 KD1 (human)): 9.4%; kinase still bound, per cent of control (RPS6KA6 KD1 (human)): 8.2%; kinase still bound, per cent of control (SLK (human)): 26%; kinase still bound, per cent of control (STK32B (human)): 100%; kinase still bound, per cent of control (TXK (human)): 48%; kinase still bound, per cent of control (ULK3 (human)): 52%
2 | Cc1ccc(NC(=O)c2cccc(C(C)(C)C#N)c2)cc1Nc1ccc2ncn(C)c(=O)c2c1 | 58% | 100% | 100% | 100% | 100% | 84% | 72% | 100% | 100% | 100% | 100% | 3.2% | 59% | 12% | 4.4% | 100% | 95% | 100% | 100% | 99% | kinase still bound, per cent of control (MAP2K1 (human)): 100%; kinase still bound, per cent of control (MAP2K3 (human)): 80%; kinase still bound, per cent of control (MAP3K10 (human)): 100%; kinase still bound, per cent of control (MAP3K5 (human)): 100%; kinase still bound, per cent of control (MERTK (human)): 100%; kinase still bound, per cent of control (MKNK2 (human)): 99%; kinase still bound, per cent of control (MUSK (human)): 92%; kinase still bound, per cent of control (MYO3B (human)): 100%; kinase still bound, per cent of control (PIK3C2B (human)): 100%; kinase still bound, per cent of control (PKN2 (human)): 100%; kinase still bound, per cent of control (PRKAA1 (human)): 73%; kinase still bound, per cent of control (PRKD1 (human)): 67%; kinase still bound, per cent of control (PRKD2 (human)): 99%; kinase still bound, per cent of control (ROCK2 (human)): 80%; kinase still bound, per cent of control (RPS6KA1 KD1 (human)): 85%; kinase still bound, per cent of control (RPS6KA6 KD1 (human)): 87%; kinase still bound, per cent of control (SLK (human)): 68%; kinase still bound, per cent of control (STK32B (human)): 100%; kinase still bound, per cent of control (TXK (human)): 5.6%; kinase still bound, per cent of control (ULK3 (human)): 97%
3 | C[C@@H](Oc1cc(-n2cnc3ccc(CN4CCN(C)CC4)cc32)sc1C(N)=O)c1ccccc1C(F)(F)F | 97% | 82% | 58% | 100% | 100% | 100% | 65% | 36% | 69% | 15% | 72% | 92% | 37% | 82% | 100% | 40% | 100% | 100% | 89% | 42% | kinase still bound, per cent of control (MAP2K1 (human)): 92%; kinase still bound, per cent of control (MAP2K3 (human)): 52%; kinase still bound, per cent of control (MAP3K10 (human)): 92%; kinase still bound, per cent of control (MAP3K5 (human)): 100%; kinase still bound, per cent of control (MERTK (human)): 24%; kinase still bound, per cent of control (MKNK2 (human)): 23%; kinase still bound, per cent of control (MUSK (human)): 100%; kinase still bound, per cent of control (MYO3B (human)): 100%; kinase still bound, per cent of control (PIK3C2B (human)): 14%; kinase still bound, per cent of control (PKN2 (human)): 6%; kinase still bound, per cent of control (PRKAA1 (human)): 57%; kinase still bound, per cent of control (PRKD1 (human)): 20%; kinase still bound, per cent of control (PRKD2 (human)): 27%; kinase still bound, per cent of control (ROCK2 (human)): 16%; kinase still bound, per cent of control (RPS6KA1 KD1 (human)): 29%; kinase still bound, per cent of control (RPS6KA6 KD1 (human)): 0.6%; kinase still bound, per cent of control (SLK (human)): 0.25%; kinase still bound, per cent of control (STK32B (human)): 100%; kinase still bound, per cent of control (TXK (human)): 71%; kinase still bound, per cent of control (ULK3 (human)): 100%
